Structures are written as SMILES. Active and inactive are the calls of the source. The calls are words filed in the database; no cut-off is given here.

Data set [1] is described as follows: Solubility of the compound. Format: physicochemical.
Data set [2] addresses T1, Toll-like receptor 8 (Homo sapiens) (UniProt Q9NR97).
T1 sequence (whole entry): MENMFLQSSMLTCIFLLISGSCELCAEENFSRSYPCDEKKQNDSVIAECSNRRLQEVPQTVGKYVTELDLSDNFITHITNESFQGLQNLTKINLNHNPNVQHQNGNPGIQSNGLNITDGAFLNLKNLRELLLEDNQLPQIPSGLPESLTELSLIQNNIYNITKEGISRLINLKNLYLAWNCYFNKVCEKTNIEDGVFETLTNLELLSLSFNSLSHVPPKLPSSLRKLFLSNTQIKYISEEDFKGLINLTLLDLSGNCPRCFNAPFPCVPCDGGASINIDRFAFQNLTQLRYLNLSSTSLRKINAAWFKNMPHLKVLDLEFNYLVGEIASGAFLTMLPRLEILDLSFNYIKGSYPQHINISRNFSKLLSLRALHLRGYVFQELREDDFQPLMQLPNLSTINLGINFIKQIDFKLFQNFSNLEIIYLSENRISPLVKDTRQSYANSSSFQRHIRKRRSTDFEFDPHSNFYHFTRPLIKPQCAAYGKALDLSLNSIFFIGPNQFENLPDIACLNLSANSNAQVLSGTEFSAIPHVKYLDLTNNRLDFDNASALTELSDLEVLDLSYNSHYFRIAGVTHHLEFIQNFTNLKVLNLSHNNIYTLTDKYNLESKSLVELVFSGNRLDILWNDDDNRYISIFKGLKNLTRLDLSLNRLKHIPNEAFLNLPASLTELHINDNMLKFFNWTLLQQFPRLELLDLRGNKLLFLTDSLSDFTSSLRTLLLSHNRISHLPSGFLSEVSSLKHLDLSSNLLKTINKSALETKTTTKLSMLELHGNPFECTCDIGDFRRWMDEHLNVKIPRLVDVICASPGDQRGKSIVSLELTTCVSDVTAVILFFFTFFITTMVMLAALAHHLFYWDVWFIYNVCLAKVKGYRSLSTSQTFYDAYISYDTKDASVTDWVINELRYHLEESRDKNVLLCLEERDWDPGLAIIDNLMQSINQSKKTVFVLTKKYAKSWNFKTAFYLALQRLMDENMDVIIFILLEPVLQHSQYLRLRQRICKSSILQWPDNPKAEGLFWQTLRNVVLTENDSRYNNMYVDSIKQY
Briefly: Agonist activity at human TLR8 expressed in HEK293 cells assessed as measured after 6 hrs by NF-kappaB luciferase reporter gene assay. Type of data set: cell-based.

Data set [3] can be described thus: Intrinsic clearance in dog liver microsomes assessed per mg protein at 1 uM measured after 60 mins. Type of data set: ADME, Canis lupus familiaris, Microsome. The note with it: read-out: CLH.
For data set [4], the target named is T2, Toll-like receptor 1 (Homo sapiens) (UniProt Q15399).
T2 sequence (whole entry): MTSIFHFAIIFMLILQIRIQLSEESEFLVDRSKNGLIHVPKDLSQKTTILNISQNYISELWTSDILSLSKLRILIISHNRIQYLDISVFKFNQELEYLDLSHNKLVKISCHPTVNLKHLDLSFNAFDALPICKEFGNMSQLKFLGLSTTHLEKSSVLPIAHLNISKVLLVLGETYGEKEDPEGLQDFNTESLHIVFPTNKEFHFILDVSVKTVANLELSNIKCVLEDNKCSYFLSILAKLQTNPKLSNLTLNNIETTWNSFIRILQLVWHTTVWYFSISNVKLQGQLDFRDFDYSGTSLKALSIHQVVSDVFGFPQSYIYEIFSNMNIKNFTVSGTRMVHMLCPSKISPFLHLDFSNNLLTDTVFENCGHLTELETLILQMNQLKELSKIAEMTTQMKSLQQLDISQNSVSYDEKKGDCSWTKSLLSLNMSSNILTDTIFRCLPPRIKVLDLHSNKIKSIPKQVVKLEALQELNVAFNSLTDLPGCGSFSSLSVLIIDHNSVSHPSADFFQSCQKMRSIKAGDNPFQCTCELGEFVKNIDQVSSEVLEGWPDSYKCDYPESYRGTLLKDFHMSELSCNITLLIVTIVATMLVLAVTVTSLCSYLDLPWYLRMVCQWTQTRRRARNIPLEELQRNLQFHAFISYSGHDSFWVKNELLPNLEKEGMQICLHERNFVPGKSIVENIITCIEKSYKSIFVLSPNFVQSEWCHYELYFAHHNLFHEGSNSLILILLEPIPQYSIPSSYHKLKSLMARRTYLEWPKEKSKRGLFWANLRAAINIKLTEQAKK
Briefly: Agonist activity at wild-type human TLR1 expressed in HEK293 cells up to 25 uM measured after 6 hrs by NF-kappaB luciferase reporter gene assay. Type of data set: cell-based.

Data set [5] can be described thus: Tmax in cynomolgus monkey plasma at 30 mg/kg, administered through oral gavage measured after 24 hrs. Type of data set: ADME, organism-based, Macaca fascicularis.
Data set [6] deals with T3, Toll-like receptor 9 (Homo sapiens) (UniProt Q9NR96).
T3 sequence (whole entry): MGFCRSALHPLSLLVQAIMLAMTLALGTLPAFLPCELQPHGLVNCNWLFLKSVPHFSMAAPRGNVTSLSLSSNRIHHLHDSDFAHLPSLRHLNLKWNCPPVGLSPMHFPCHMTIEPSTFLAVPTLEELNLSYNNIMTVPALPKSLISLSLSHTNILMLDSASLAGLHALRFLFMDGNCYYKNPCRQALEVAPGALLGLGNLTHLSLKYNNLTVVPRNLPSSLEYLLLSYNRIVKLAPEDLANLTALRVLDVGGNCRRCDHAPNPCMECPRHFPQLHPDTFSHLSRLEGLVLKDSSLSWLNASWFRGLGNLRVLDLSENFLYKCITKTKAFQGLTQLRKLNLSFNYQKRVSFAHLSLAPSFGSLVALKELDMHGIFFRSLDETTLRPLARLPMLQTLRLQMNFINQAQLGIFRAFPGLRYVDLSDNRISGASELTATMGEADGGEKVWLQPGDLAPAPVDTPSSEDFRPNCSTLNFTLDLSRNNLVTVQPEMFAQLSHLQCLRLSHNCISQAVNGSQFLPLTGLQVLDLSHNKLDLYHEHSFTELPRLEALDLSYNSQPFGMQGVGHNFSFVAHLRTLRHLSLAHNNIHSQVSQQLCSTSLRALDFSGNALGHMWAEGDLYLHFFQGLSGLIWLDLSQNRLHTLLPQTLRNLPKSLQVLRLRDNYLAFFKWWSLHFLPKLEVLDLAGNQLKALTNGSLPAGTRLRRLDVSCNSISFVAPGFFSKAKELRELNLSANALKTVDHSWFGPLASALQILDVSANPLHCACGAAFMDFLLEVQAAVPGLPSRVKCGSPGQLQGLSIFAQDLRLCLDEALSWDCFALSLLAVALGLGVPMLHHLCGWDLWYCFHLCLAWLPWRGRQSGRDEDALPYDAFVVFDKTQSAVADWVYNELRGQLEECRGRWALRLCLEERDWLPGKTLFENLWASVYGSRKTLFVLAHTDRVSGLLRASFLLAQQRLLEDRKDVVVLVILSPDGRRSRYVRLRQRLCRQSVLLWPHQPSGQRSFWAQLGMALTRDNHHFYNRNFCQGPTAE
Briefly: Agonist activity at wild-type human TLR9 expressed in HEK293 cells up to 25 uM measured after 6 hrs by NF-kappaB luciferase reporter gene assay. Type of data set: cell-based.

Data set [7] in a line: Oral bioavailability in cynomolgus monkey at 3 mg/kg, measured after 24 hrs. Format: ADME, organism-based, Macaca fascicularis. The note with it: in vivo.

As for `CCCC[C@@H](CCO)Nc1nc(N)ncc1OC`, the solubility result in data set [1] is reported as “Soluble”. Moreover, in data set [2], the LED came out at 1.6 µM. Also, the microsomal CLint at 1 µM in data set [3] was 7 µL/min/mg. The outcome in data set [4] and in data set [6] was inactive. The Tmax in data set [5] lay in the range of 1 to 2 h. Besides, in data set [7], the bioavailability came out at 0.8%.

The record behind these values is ChEMBL document CHEMBL4428063, “Novel Pyrimidine Toll-like Receptor 7 and 8 Dual Agonists to Treat Hepatitis B Virus” (J Med Chem, 2016).
